# Data taken from the supplement of paper PMC10307832.
# Legend:
# Experiment in all cases: relative viability (nuclei count vs DMSO), 5 days (fraction); higher = more cells survive
# Vismodegib + Dasatinib = compound: CS(=O)(=O)c1ccc(C(=O)Nc2ccc(Cl)c(-c3ccccn3)c2)c(Cl)c1 [Vismodegib] + Cc1nc(Nc2ncc(C(=O)Nc3c(C)cccc3Cl)s2)cc(N2CCN(CCO)CC2)n1 [Dasatinib] (partner 0.075 µM)
# Method in brief: (§1)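 The day after seeding in 1536-well plates, lung cancer cell lines were treated by pin tool with a single drug, or with a fixed anchor-drug dose together with five library-drug doses (not always all listed) in √10 steps. After 5 days, a combined fix-and-stain solution (final 0.05% Triton X-100, 1% formaldehyde, 1 ug/ml Hoechst) was added. Nuclei counted on 4× images gave relative viability as treated counts over vehicle counts, reported as the median of duplicate plates.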
# Vismodegib + Trametinib = compound: CS(=O)(=O)c1ccc(C(=O)Nc2ccc(Cl)c(-c3ccccn3)c2)c(Cl)c1 [Vismodegib] + CC(=O)Nc1cccc(-n2c(=O)n(C3CC3)c(=O)c3c(Nc4ccc(I)cc4F)n(C)c(=O)c(C)c32)c1 [Trametinib] (partner 0.02 µM)
# Method in brief: as §1
# Vismodegib + Lapatinib = compound: CS(=O)(=O)c1ccc(C(=O)Nc2ccc(Cl)c(-c3ccccn3)c2)c(Cl)c1 [Vismodegib] + CS(=O)(=O)CCNCc1ccc(-c2ccc3ncnc(Nc4ccc(OCc5cccc(F)c5)c(Cl)c4)c3c2)o1 [Lapatinib] (partner 2 µM)
# Method in brief: as §1
# VE-821 + Lapatinib = compound: CS(=O)(=O)c1ccc(-c2cnc(N)c(C(=O)Nc3ccccc3)n2)cc1 [VE-821] + CS(=O)(=O)CCNCc1ccc(-c2ccc3ncnc(Nc4ccc(OCc5cccc(F)c5)c(Cl)c4)c3c2)o1 [Lapatinib] (partner 2 µM)
# Method in brief: as §1
Cell Line,relative viability (Vismodegib + Dasatinib; first compound 0.08 µM),relative viability (Vismodegib + Dasatinib; first compound 0.253 µM),relative viability (Vismodegib + Dasatinib; first compound 0.8 µM),relative viability (Vismodegib + Dasatinib; first compound 2.53 µM),relative viability (Vismodegib + Dasatinib; first compound 8 µM),relative viability (Vismodegib + Trametinib; first compound 0.08 µM),relative viability (Vismodegib + Trametinib; first compound 0.253 µM),relative viability (Vismodegib + Trametinib; first compound 0.8 µM),relative viability (Vismodegib + Trametinib; first compound 2.53 µM),relative viability (Vismodegib + Trametinib; first compound 8 µM),relative viability (Vismodegib + Lapatinib; first compound 0.08 µM),relative viability (Vismodegib + Lapatinib; first compound 0.253 µM),relative viability (Vismodegib + Lapatinib; first compound 0.8 µM),relative viability (Vismodegib + Lapatinib; first compound 2.53 µM),relative viability (Vismodegib + Lapatinib; first compound 8 µM),relative viability (VE-821 + Lapatinib; first compound 0.08 µM),relative viability (VE-821 + Lapatinib; first compound 0.253 µM),relative viability (VE-821 + Lapatinib; first compound 0.8 µM),relative viability (VE-821 + Lapatinib; first compound 2.53 µM),relative viability (VE-821 + Lapatinib; first compound 8 µM)
NCI-H1734,0.44,0.498,0.482,0.446,0.537,0.627,0.566,0.636,0.689,0.817,1.04,1.02,0.96,0.957,1,1.43,1.04,1.03,1.16,0.73
SK-LU-1,0.211,0.196,0.204,0.211,0.211,0.441,0.473,0.54,0.441,0.444,0.769,0.887,0.991,0.776,0.884,0.907,0.668,0.625,0.582,0.525
NCI-H3122,0.871,0.823,0.811,0.862,0.867,0.247,0.254,0.216,0.247,0.202,0.987,1.06,0.982,0.897,0.936,1.06,1,0.926,1.03,1
CAL-12T,0.322,0.224,0.403,0.586,0.482,0.309,0.333,0.372,0.355,0.426,,0.723,0.578,0.562,0.75,0.656,0.7,0.637,0.839,0.456
NCI-H522,0.915,0.888,0.883,0.793,0.879,0.797,0.763,0.639,0.609,0.669,,,,,,,,,,
Calu-6,,,,,,,,,,,1.13,1.08,1.06,1.09,1.03,1.21,1.05,1.1,0.89,0.551
IA-LM,,,,,,,,,,,0.807,0.639,0.802,0.691,0.911,1.03,0.744,0.821,0.83,0.501
NCI-H1648,,,,,,0.38,0.48,0.383,0.49,0.535,,,,,,,,,,
NCI-H441,0.671,0.444,0.502,0.558,0.433,0.512,,0.409,0.469,0.489,,,,,,,,,,
NCI-H1703,,,,,,,,,,,1.12,0.822,1.21,1.16,1.52,1.21,1,1.06,0.547,0.328
ABC-1,0.584,0.415,0.527,0.527,0.582,,,,,,,1.17,1.14,1.02,1.15,1.3,1.32,0.811,0.953,0.994
NCI-H1299,,,,,,,,,,,0.952,0.893,0.992,0.968,1,0.948,0.885,0.915,0.913,0.771
